Source: US20160136194A1, “Pharmaceutical composition comprising a proton pump inhibitor and a prebiotic for the treatment of ulcerous lesions of the stomach and duodenum” (priority 2010, published 2016)

Tests used:
[1] = system: Helicobacter pylori; test: Microbiological method: isolation of H. pylori culture from patient material, before and after therapy; format: in vivo; conditions: share of patients positive, n = 10
Excerpt: (§1) There were enrolled 80 patients aged 19 to 57 years in the study: males and females with newly diagnosed gastric and duodenal ulcer, five from them with Zollinger-Ellison syndrome.
(§2) All patients were divided into 8 groups of 10 patients each, 4 groups of them were experimental: the declared dosage forms on the base of PPI and prebiotic were orally administered by them. For the first group active components of the composition were omeprazole and a lactulose; for the second group—pantoprazole and prebiotic lactitol; for the third group—lansoprazole, and prebiotic inulin; for the fourth group—rabeprazole and prebiotic amino acids (glutamic acid). 5th, 6th, 7th and 8th groups were control: patients of the 5th group received monotherapy by omeprazole; patients of the 6th group—by lansoprazole; patients of the 7th group—esomeprazole and patients of the 8th group of patients received standard therapy for the elimination of H. pylori: omeprazole, metronidazole and clarithromycin.
(§3) All patients received treatment according to the similar regimen: took the composition of PPI and prebiotic 1-2 times a day within 14 days.
4. Microbiological method. Inoculation and isolation of pure culture of H. pylori from the biopsy material of the mucosa, obtained by gastroduodenoscopy.
Before the beginning and after the termination of the eradication therapy all 80 patients have been enrolled in the clinical trials were microbiologically tested on the presence of H. pylori, lactobacilli and bifidobacteria in the stomach and duodenum content.
The material was analyzed in microbiological laboratory of the Pasteur Institute of Epidemiology and Microbiology, St. Petersburg.
Strains of H. pylori were identified on the base of analysis of colony and cell morphology, cultural, biochemical and tinctorial properties of microorganisms. Lactobacillus strains isolated in the material from the intestine additionally were identified on catalase and oxidase activity.
The bacterium quantity in the material was estimated by calculation of colonies on dense nutrient mediums that were represented in the form of Ig CFU/ml.

[2] = system: Helicobacter pylori; test: Cytological test of the biopsy material of the gastric mucosa; format: in vivo; conditions: share of patients positive, n = 10
Excerpt: as §1, §2, §3
1. Cytological and histological examination of imprint smear of the biopsy material of the gastric antrum mucosa, obtained by gastroscopy. Thus, microcolonies of Helicobacter pylori are detected using special stain.

[3] = system: Helicobacter pylori; test: Urease test of gastric mucosa biopsy material; format: in vivo; conditions: share of patients positive, n = 10
Excerpt: as §1, §2, §3
2. Urease test. The biopsy material of the gastric mucosa was examinated for the presence of the urease—enzyme specific for Helicobacter pylori (Helicobacter Test INFAI).

[4] = system: gastric acid secretion; conditions: compared with PPI of the first generation; cited from earlier work
[5] = after therapy (1-2 times a day, 14 days)

Structure (SMILES): COc1ccc2[nH]c([S+]([O-])Cc3ncc(C)c(OC)c3C)nc2c1 (stereo not shown) [5th group, omeprazole]
- Isolation of Helicobacter pylori from stomach content [1, 5]: 50%
- Isolation of Helicobacter pylori from stomach content ([1]; before therapy, peptic ulcer): 100%
- Cytological test of the biopsy material of the gastric mucosa ([2]; after therapy (14 days)): 40%
- Cytological test of the biopsy material of the gastric mucosa ([2]; before therapy): 80%
- Urease test ([3]; after therapy (14 days)): 30%
- Urease test ([3]; before therapy): 70%

Structure (SMILES): Cc1c(OCC(F)(F)F)ccnc1C[S+]([O-])c1nc2ccccc2[nH]1 (stereo not shown) [6th group, lansoprazole]
- Isolation of Helicobacter pylori from stomach content [1, 5]: 60%
- Isolation of Helicobacter pylori from stomach content ([1]; before therapy, peptic ulcer): 100%
- Cytological test of the biopsy material of the gastric mucosa ([2]; after therapy (14 days)): 40%
- Cytological test of the biopsy material of the gastric mucosa ([2]; before therapy): 60%
- Urease test ([3]; after therapy (14 days)): 60%
- Urease test ([3]; before therapy): 70%

Structure (SMILES): COc1ccc2nc([S@@+]([O-])Cc3ncc(C)c(OC)c3C)[nH]c2c1 [7th group, esomeprazole]
- Isolation of Helicobacter pylori from stomach content [1, 5]: 50%
- Isolation of Helicobacter pylori from stomach content ([1]; before therapy, peptic ulcer): 100%
- Cytological test of the biopsy material of the gastric mucosa ([2]; after therapy (14 days)): 40%
- Cytological test of the biopsy material of the gastric mucosa ([2]; before therapy): 70%
- Urease test ([3]; after therapy (14 days)): 40%
- Urease test ([3]; before therapy): 60%
- Kept pH value <4 in stomach, above PPI of the first generation [4]: 10-15%
